Measured values taken from US10322114B2 (Above and Beyond NB LLC, priority 2017, dated 2019).

[1] = oral 1.3 mg/kg BID 14 days versus IT 0.25 mg/hour 5 days, higher in oral

Excerpt: Animals were then sacrificed and a necropsy was immediately performed.
After stopping the 5-day treatment, animals were sacrificed and a necropsy was immediately performed. […] One hour after stopping the 14-day treatment, animals were sacrificed and a necropsy was immediately performed.
Animals were then sacrificed and a necropsy was immediately performed. […] Animals were then sacrificed and a necropsy was immediately performed.

## Nc1nc2ccc(OC(F)(F)F)cc2s1 [Riluzole, 2-Amino-6-(trifluoromethoxy)benzothiazole]
IT 0.25 mg/hour 5 days versus oral 1.3 mg/kg BID 14 days, higher in IT
  riluzole accumulation in the spinal cord, IT-treated compared to oral-treated dogs: approximately 4 fold
Oral 1.3 mg/kg BID 14 days versus IT 0.25 mg/hour 5 days
  riluzole level in CSF, oral-treated compared to IT-treated dogs: similar
[1]
  riluzole level in plasma, oral-treated compared to IT-treated dogs: approximately 20 fold
  riluzole level in urine, oral-treated compared to IT-treated dogs: approximately 3 fold
